Test results taken from patent US8597692B2, “Cocoa extract and use thereof” (Barry Callebaut AG, priority 2007, dated 2013).

Assays:
[1] = Body weight during the experimental period (Example 1); format: in vivo, rat; details: 14-day treatment; CPE 24 and 48 mg/kg, Imipramine 15 mg/kg PO; IMI difference from D5 to D14
Procedure: (§1) An open field (40 cm high×60 cm in diameter) divided into 9 areas (8 equal squares and the central zone) is used for the measurement of locomotor and behavioral activity, to exclude the possibility that immobility is due to locomotion problems. The experimental devices for the forced swimming test are plexiglas cylinders (50 cm high×20 cm in diameter) filled to 30 cm depth with water at 25° C. In the slightly lit test room, a CCD-TV camera allows the rats to be observed and filmed on VHS-videotapes from a neighbouring room. During the experimental period, rats are weighed 3 times per week, i.e. Monday, Wednesday and Friday. Each rat is individually placed for 3 min in the center of the open field device 5 hours after the 13th treatment and 15 min before the forced swim test pretest session. This test is performed in order to test the effects of the products used on the locomotor activity of the animals and confirm that the results in the forced swim relate to the animal's mental state as opposed to locomotor ability. Immobility is defined as absence of swimming activity other than that necessary to keep the rat's head above the water. Imipramine (15 mg/kg BW, PO) is used as the antidepressant reference substance.

[2] = system: Male Wistar-Unilever rats; experiment: Forced swimming test in rat model for depression (Example 1); format: in vivo
Procedure: Male Wistar-Unilever rats (HsdCpb:WU) (Harlan, Horst, The Netherlands), weighing 200 to 225 g are weighed and randomly divided into 4 groups (n=12). Cocoa extract according to the invention comprising by weight 54-58% polyphenols, 8-9% theobromine, and 0.5-1.5% phenylethylamine is dissolved in spring water and stirred until homogenization just before its administration at the doses of 24 and 48 mg/kg BW, PO, in a volume of administration of 10 ml/kg BW.
The test product is orally administered for 14 days twice a day (2×12 and […]) in the morning and in the afternoon Imipramine (Sigma, France) was stored at room temperature and prepared fresh before testing. It is dissolved in spring water and stirred until homogenization just before its administration at a dose of 15 mg/kg BW, PO, in a volume of administration of 10 ml/kg. Imipramine is administered once a day.
as §1
The test product and the vehicle are orally administered for 14 days, twice a day in the morning and in the afternoon. On D13, the products are administered just after the pretest session which lasted 15 minutes. On D14 the products are administered five hours and one hour prior to the forced swimming test. The test session lasts 5 minutes. The first five minutes of the initial 15-min swimming pretest and the 5-min swimming test session are videotaped for scoring the duration of immobility. Imipramine (15 mg/kg BW, PO) is used as the antidepressant reference substance.

[3] = system: Male Wistar-Unilever rats; experiment: Open field test of locomotor and behavioral activity (Example 1); format: in vivo, rat; details: 3 min, 5 hours after the 13th treatment; CPE 24 and 48 mg/kg, Imipramine 15 mg/kg PO
Procedure: as §1

Compound: CN(C)CCCN1c2ccccc2CCc2ccccc21 [IMI, Imipramine]
- body weight compared with the other groups [1]: significantly lower
- duration of immobility, Test (Mean ± SEM) ([2]; 5-min test session, D14, 15 mg/kg BW PO once a day, n = 12): 10.33 ± 1.79
- change of duration of immobility from pretest to test session (paired t-test) ([2]; CPE 24 and 48 mg/kg, Imipramine 15 mg/kg PO): significantly decreased
- duration of immobility in comparison with vehicle, pretest session (Dunnett's t test) ([2]; pretest session after a 13 day-period of treatment, Imipramine 15 mg/kg PO): significantly reduced
- duration of immobility, Pretest (Mean ± SEM) ([2]; pretest session, first 5 min, D13, 15 mg/kg BW PO once a day, n = 12): 21.25 ± 3.70
- durations of immobility in comparison with vehicle, test session (Dunnett's t test) ([2]; test session D14, CPE 24 and 48 mg/kg, Imipramine 15 mg/kg PO): significantly reduced
- overt behavioral changes or motor dysfunction in the open field test [3]: Neither administration of Imipramine nor CPE showed significant differences
